Results as given in US7863267B2, “Use of selective chloride channel modulators to treat methamphetamine abuse” (priority 2003, dated 2011).
Like-named read-outs stand apart in the source and are kept apart here.

Experiments:
[1] = cited from earlier work
[2] = system: alcoholics; test: Follow-up after flumazenil treatment programme (therapy, dropouts); assay type: in vivo, human
Description: Before discharge from the hospital, the following medications were prescribed: • Vitamin B complex: 1 month with one dose during breakfast and one dose during lunch. • Piracetam, or a medicament that is pharmacologically equivalent, 3 g for 1 week with one dose during breakfast and 800 mg for 1 month with one dose during breakfast and one dose during lunch; • Fluoxetine 20 mg for 2 months with one dose during breakfast; • Clomethiazole 192 mg for 1 week with one dose during breakfast and one dose during dinner and a subsequent elimination of dose during the second week; • Disulfuram 250 mg with one dose during breakfast.
As part of the treatment program, the patients were instructed to attend the outpatient treatment center for 9 months with decreasing frequency [once a week for the first three months, once every two weeks during the second three months, and once a month during the third three months].
Likewise, a semi-structured follow-up of cognitive behavior therapy was implemented. Individual and family psychotherapy was focused on 4 major interventions (cognitive restructuring, work therapy, prevention of relapse, and stress reduction) aimed at rehabilitating the social, family, work, personal and leisure life of the patient.
Table 16 statistically summarizes the results obtained before and after the treatment (at the end of 18 hours).

[3] = system: alcoholics in the acute withdrawal phase; conditions: 2 mg IV for 1 minute, 8 alcoholics, cited from earlier work
[4] = system: ethanol withdrawal syndrome; conditions: cited from earlier work
[5] = system: alcoholics; test: Clinical observations during hospitalization (appetite, sleep, anxiety, desire to drink); assay type: in vivo, human
Source text: (§1) 64 alcoholics (51 males and 13 females) voluntarily entered a treatment program to discontinue the use of alcohol. The patients were provided the appropriate information and the corresponding informed consent form was obtained from them. The patients were warned not to drink alcohol the morning on which the treatment was to be carried out to enable better evaluation of the withdrawal symptoms. Table 14 summarizes the characteristics of the patients treated associated with alcohol use.
(§2) Flumazenil was administered at a dose of 0.2 mg every 3 minutes (up to a total of 2 mg/day). This quantity per dose was established to minimize the adverse side effects associated with withdrawal or interactions with other pharmaceuticals or psychopathologies.

[6] = system: alcoholics; test: CIWA-A withdrawal symptomatology before and after flumazenil in alcoholics; assay type: in vivo, human
Source text: as §1
(§3) Before starting the treatment, the patients underwent a complete medical and psychological examination. The monitoring of the patients throughout the morning included a complete blood count, a biochemical profile [creatinine, glucose, blood urea nitrogen (BUN), cholesterol (HDL and LDL), triglycerides, alkaline phosphatase, LDH (lactic dehydrogenase) and total proteins], hepatic function tests [GOT, GPT, GGT, bilirubin), electrocardiogram and, if need be, pregnancy test and x-ray examination. The exclusion criteria applied included acute or uncompensated illnesses, as well as the taking of any drug contraindicated with flumazenil. No patient was excluded after the pre-admission interview and the tests performed. Admission of one patient was postponed until their cardiac pathology was checked.
(§4) Before and after the administration of flumazenil, the withdrawal symptomatology was measured using the CIWA-A evaluation (Adinoff et al., Medical Toxicology 3:172-196 (1988)), as well as heart rate and blood pressure.
as §2
(§5) Patients who presented marked anxiety were administered an additional dose of 192 mg of clomethiazole 30 minutes before administration of flumazenil.

[7] = system: alcoholics; test: Adverse events during flumazenil administration in alcoholics; assay type: in vivo, human
Source text: as §1, §2, §5

[8] = system: alcoholics; test: Heart rate and blood pressure before and after flumazenil in alcoholics; assay type: in vivo, human; parameters: Heart rate: patients with a significant reduction / Diastolic blood pressure: patients with a significant reduction: concentration or dose not given beside the values
Source text: as §1, §3, §4, §2, §5

[9] = excreted unchanged, not appreciably metabolized; cited from earlier work
[10] = after first administration, 55 patients
[11] = after second administration, 58 patients
[12] = after first administration, 53 patients
[13] = after second administration, 55 patients
[14] = after second administration, 56 patients

**Q.** With `OCCOCCN1CCN(C(c2ccccc2)c2ccc(Cl)cc2)CC1` (centres unmarked) [Hydroxyzine] as the compound, how does the “Time to effects after oral administration” value [1] read?
**A.** 15 to 30 min

**Q.** For `CCOC(=O)c1ncn2c1CN(C)C(=O)c1cc(F)ccc1-2` [flumazenil, ethyl 8-fluoro-5,6-dihydro-5-methyl-6-oxo-4H-imidazol[1,5-a][1,4]benzodiazepine-3-carboxylate], which “Follow-up: Dropouts” value ([2]; Month 1, N 43) is on record?
**A.** 4.7%

**Q.** What about the “Follow-up: Therapy and Disulfiram” value ([2]; Month 1, N 43) of the same compound?
**A.** 95.3%

**Q.** What about the “Follow-up: Therapy without Disulfiram” value ([2]; Month 1, N 43) of the same compound?
**A.** 4.5%

**Q.** What about the “Follow-up: Dropouts” value ([2]; Month 3, N 22) of the same compound?
**A.** 9.1%

**Q.** And the “Follow-up: Therapy and Disulfiram” value ([2]; Month 3, N 22)?
**A.** 86.4%

**Q.** And the “Follow-up: Dropouts” value ([2]; Month 6, N 12)?
**A.** 25%

**Q.** And the “Follow-up: Therapy and Disulfiram” value ([2]; Month 6, N 12)?
**A.** 75%

**Q.** What about the “Follow-up: Dropouts” value ([2]; Month 9, N 8) of the same compound?
**A.** 12.5%

**Q.** And the “Follow-up: Therapy and Disulfiram” value ([2]; Month 9, N 8)?
**A.** 75%

**Q.** And the “Follow-up: Therapy without Disulfiram” value ([2]; Month 9, N 8)?
**A.** 12.5%

**Q.** And the “Withdrawal symptoms after flumazenil” value ([3]; in other cases)?
**A.** the withdrawal symptoms disappeared but returned a few hours later

**Q.** What about the “Withdrawal symptoms after flumazenil” value ([3]; in some cases, especially sweats and anxiety) of the same compound?
**A.** immediate worsening of the withdrawal symptoms

**Q.** What about the “Anxiogenic withdrawal effects (social interaction test, elevated plus maze)” value ([4]; rat models of the ethanol withdrawal syndrome) of the same compound?
**A.** reverse anxiogenic withdrawal effects

**Q.** What about the “Agitation and stereotyped behavior induced by withdrawal from long-term ethanol exposure” value ([4]; rats) of the same compound?
**A.** prevent the agitation and stereotyped behavior

**Q.** And the “Psychophysiological functions such as appetite and sleep” value [5]?
**A.** regained very rapidly

**Q.** What about the “Spontaneous verbal report from the majority of the patients” value [5] of the same compound?
**A.** absence of anxiety and of the desire to drink alcohol

**Q.** What about the “CIWA-A scoring: patients with a significant reduction” value ([6]; after first administration of flumazenil (0.2 mg every 3 min up to 2 mg/day), 55 patients) of the same compound?
**A.** 47.3%

**Q.** And the “CIWA-A scoring: patients with a significant increase” value [6, 10]?
**A.** 12.7%

**Q.** And the “CIWA-A scoring: patients with no change” value [6, 10]?
**A.** 40.0%

**Q.** What about the “CIWA-A scoring: patients with a significant increase” value [6, 11] of the same compound?
**A.** 8.6%

**Q.** What about the “CIWA-A scoring: patients with a significant reduction” value [6, 11] of the same compound?
**A.** 36.2%

**Q.** What about the “CIWA-A scoring: patients with no change” value [6, 11] of the same compound?
**A.** 55.2%

**Q.** What about the “CIWA-A mean after treatment” value ([6]; after treatment (at the end of 18 hours), n=54, before treatment mean 4.13) of the same compound?
**A.** .76

**Q.** And the “Patients who suffered headache during or immediately following administration” value ([7]; disappeared after a few minutes or after metamizole magnesium)?
**A.** Approximately 10%

**Q.** And the “First administration of flumazenil interrupted and postponed to the following day” value ([7]; of the 64 patients treated, increase in confusion, distal tremors or anxiety)?
**A.** 3 cases

**Q.** What about the “Diastolic blood pressure: patients with a significant increase” value [8, 12] of the same compound?
**A.** 18.9%

**Q.** What about the “Diastolic blood pressure: patients with a significant reduction” value [8, 12] of the same compound?
**A.** 34%

**Q.** What about the “Diastolic blood pressure: patients with no change” value [8, 12] of the same compound?
**A.** 47.2%

**Q.** What about the “Systolic blood pressure: patients with a significant increase” value [8, 12] of the same compound?
**A.** 15.1%

**Q.** And the “Systolic blood pressure: patients with a significant reduction” value [8, 12]?
**A.** 47.2%

**Q.** What about the “Systolic blood pressure: patients with no change” value [8, 12] of the same compound?
**A.** 37.7%

**Q.** What about the “Heart rate: patients with a significant increase” value [8, 10] of the same compound?
**A.** 9.1%

**Q.** And the “Heart rate: patients with a significant reduction” value [8, 10]?
**A.** 50.9%

**Q.** What about the “Heart rate: patients with no change” value [8, 10] of the same compound?
**A.** 40.0%

**Q.** What about the “Heart rate: patients with a significant reduction” value [8, 13] of the same compound?
**A.** 41.8%

**Q.** What about the “Heart rate: patients with no change” value [8, 13] of the same compound?
**A.** 58.2%

**Q.** What about the “Diastolic blood pressure: patients with a significant increase” value [8, 14] of the same compound?
**A.** 19.6%

**Q.** And the “Diastolic blood pressure: patients with a significant reduction” value [8, 14]?
**A.** 28.6%

**Q.** What about the “Diastolic blood pressure: patients with no change” value [8, 14] of the same compound?
**A.** 51.8%

**Q.** What about the “Systolic blood pressure: patients with a significant increase” value [8, 14] of the same compound?
**A.** 16.1%

**Q.** And the “Systolic blood pressure: patients with a significant reduction” value [8, 14]?
**A.** 28.6

**Q.** And the “Systolic blood pressure: patients with no change” value [8, 14]?
**A.** 55.4%

**Q.** And the “Diastolic blood pressure mean after treatment” value ([8]; after treatment (at the end of 18 hours), n=51, before treatment mean 86.27)?
**A.** 82.75

**Q.** What about the “Systolic blood pressure mean after treatment” value ([8]; after treatment (at the end of 18 hours), n=51, before treatment mean 135.2) of the same compound?
**A.** 126.67

**Q.** What about the “Heart rate mean after treatment” value ([8]; after treatment (at the end of 18 hours), n=53, before treatment mean 81.42, in beats/min (unit assumed)) of the same compound?
**A.** 75.02

**Q.** Which Elimination half-life [9] does the source give for `NCC1(CC(=O)O)CCCCC1` [Gabapentin] here?
**A.** 5 to 7 h
